Consider three compounds from article PMC6054074, “The medicinal thiosulfinates from garlic and Petiveria are not radical-trapping antioxidants in liposomes and cells, but lipophilic analogs are” (Chemical Science, 2015).

Where two headings read alike, the source gives them in different places.

The target in the assay is T1, papain (Carica papaya, UniProt P00784).
T1 sequence (P00784 134-345): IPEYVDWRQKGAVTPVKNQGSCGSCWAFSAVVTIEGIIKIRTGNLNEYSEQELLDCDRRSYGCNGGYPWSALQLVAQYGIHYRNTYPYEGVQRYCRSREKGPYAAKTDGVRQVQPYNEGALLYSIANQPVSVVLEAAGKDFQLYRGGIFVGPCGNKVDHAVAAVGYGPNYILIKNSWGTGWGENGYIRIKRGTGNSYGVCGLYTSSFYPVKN
In words: chromogenic protease assay (BAPNA, […] nm) after […] min preincubation of DTT-reduced papain with compound. Type of assay: biochemical.

By IC50 is commonly meant the concentration that inhibits the measured activity by half. On to `C=CCS[S+]([O-])CC=C` (stereo not drawn) [compound 1, allicin], for which the IC50 came out at 1200 ± 200 nM.
`[O-][S+](Cc1ccccc1)SCc1ccccc1` (stereo not drawn) [compound 2, petivericin]: under “read-out: IC50”, the IC50 is 1100 ± 100 nM.
The same measure, in the same setting: under `CCCCCCc1ccc(CS[S+]([O-])Cc2ccc(CCCCCC)cc2)cc1` (stereo not drawn) [compound 4, hexylated petivericin] stands 1000 ± 100 nM.
